Assay results taken from publication PMC11427300, “Cryptic enzymatic assembly of peptides armed with β-lactone warheads” (Nature Chemical Biology, 2024).

Legend:
Assay type in all cases: biochemical
BhCysFE = molecular target: T1, BhCysFE (Bradyrhizobium huanghuaihaiense, UniProt A0A562R406); assay: LC-MS
T1 construct: gene IQ16_06114; natural fusion (CysF-like aa 1-487, linker ATPVNMR, CysE-like aa 495-768), C-terminal His tag (pET28-a(+)), E. coli
T1 sequence (A0A562R406 1-768): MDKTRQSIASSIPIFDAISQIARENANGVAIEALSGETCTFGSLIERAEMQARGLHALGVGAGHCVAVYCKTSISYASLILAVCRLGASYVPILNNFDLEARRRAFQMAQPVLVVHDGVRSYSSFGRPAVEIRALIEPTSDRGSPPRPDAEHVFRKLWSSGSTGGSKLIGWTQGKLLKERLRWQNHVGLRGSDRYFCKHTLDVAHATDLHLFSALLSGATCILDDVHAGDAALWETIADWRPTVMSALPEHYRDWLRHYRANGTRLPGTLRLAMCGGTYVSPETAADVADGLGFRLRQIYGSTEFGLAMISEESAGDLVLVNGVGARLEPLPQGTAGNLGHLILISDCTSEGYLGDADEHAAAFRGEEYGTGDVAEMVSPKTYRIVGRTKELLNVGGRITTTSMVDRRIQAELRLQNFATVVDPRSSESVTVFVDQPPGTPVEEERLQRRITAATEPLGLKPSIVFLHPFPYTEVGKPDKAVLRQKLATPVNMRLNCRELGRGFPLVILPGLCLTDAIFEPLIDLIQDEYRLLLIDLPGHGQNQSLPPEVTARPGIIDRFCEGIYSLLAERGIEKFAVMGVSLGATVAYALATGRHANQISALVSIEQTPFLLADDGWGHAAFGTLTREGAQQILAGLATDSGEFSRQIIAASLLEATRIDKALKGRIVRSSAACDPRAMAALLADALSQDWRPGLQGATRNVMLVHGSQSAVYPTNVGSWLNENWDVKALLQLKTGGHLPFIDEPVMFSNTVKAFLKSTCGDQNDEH

CysF [1] = molecular target: T2, CysF (Kitasatospora cystarginea, UniProt A0A1W6R555); assay: GC-MS and 1H NMR product analysis; conditions: ATP, MgCl2, phosphate pH 7.8, 25 °C; β-lactonization to 3a
T2 construct: C-terminal His tag (pET21-a(+)), E. coli; 8RA0 is the apo structure, residues 1-491 mentioned
T2 sequence (A0A1W6R555 1-491): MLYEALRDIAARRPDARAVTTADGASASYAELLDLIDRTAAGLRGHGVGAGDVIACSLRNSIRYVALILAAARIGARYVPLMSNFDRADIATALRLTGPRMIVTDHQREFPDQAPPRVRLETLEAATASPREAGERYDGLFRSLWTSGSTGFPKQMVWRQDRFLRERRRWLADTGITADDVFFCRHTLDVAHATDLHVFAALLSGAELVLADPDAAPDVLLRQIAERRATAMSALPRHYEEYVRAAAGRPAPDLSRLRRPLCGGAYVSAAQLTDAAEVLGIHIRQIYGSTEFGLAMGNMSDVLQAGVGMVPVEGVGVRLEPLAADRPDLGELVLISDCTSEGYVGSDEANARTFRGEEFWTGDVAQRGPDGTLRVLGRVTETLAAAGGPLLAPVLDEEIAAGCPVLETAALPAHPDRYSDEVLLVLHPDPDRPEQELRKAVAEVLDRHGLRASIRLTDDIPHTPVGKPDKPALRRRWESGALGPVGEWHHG

CysE = molecular target: T3, CysE (Kitasatospora cystarginea, UniProt A0A1W6R564); assay: LC-MS, tandem assay with CysF; conditions: 3a generated in situ from 2a by CysF and ATP; MgCl2, phosphate pH 7.8, 25 °C
T3 construct: C-terminal His tag (pET28-a(+)), E. coli BL21(DE3)
T3 sequence (A0A1W6R564 1-271): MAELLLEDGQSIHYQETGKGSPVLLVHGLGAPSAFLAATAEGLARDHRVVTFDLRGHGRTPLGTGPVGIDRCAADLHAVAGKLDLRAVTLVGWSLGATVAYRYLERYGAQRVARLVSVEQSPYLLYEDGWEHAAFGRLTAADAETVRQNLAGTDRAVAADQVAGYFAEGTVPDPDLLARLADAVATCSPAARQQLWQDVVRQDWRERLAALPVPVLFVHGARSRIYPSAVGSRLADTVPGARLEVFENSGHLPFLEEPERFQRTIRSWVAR

BelH = molecular target: T4, BelH (Streptomyces sp., UniProt A0A1W6R584); assay: LC-MS and GC-MS, cascade assay with BelI or BelR; conditions: ATP, MgCl2, phosphate pH 7.8, 25 °C; β-lactonization to 3b
T4 construct: N-terminal His tag (pET28-a(+)), E. coli BL21(DE3)
T4 sequence (A0A1W6R584 1-491): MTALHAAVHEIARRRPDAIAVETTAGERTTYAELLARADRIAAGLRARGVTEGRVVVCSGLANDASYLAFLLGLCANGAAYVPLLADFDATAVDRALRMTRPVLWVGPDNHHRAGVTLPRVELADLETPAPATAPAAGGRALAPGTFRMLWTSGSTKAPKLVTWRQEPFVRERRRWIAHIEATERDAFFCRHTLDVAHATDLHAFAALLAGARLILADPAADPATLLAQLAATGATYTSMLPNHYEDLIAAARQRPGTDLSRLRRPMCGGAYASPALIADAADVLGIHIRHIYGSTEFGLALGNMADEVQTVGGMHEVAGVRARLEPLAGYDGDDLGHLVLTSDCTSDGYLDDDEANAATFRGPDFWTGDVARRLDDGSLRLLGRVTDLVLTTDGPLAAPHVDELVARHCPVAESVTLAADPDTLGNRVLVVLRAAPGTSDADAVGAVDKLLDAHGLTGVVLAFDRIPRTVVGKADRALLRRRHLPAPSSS

CysG = molecular target: T5, CysG (Kitasatospora cystarginea, UniProt A0A1W6R556); assay: LC-MS and NMR product analysis; conditions: MgCl2, phosphate pH 7.8, 25 °C
T5 construct: C-terminal His tag (pET28-a(+)), E. coli BL21(DE3)
T5 sequence (A0A1W6R556 1-228): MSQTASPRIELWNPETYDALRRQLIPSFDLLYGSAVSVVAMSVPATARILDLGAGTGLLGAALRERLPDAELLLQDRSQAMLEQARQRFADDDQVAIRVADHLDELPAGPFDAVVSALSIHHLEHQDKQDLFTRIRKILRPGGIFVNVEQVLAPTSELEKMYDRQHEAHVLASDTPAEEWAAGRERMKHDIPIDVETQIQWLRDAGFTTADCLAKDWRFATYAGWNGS

CysF [2] = molecular target: T2, CysF; assay: LC-MS, hydroxylamine trapping as hydroxamic acid […]; conditions: ATP, adenylation only, no lactone formed

## COC(=O)[C@H](O)[C@@H](C(=O)O)C(C)C [2a, C1-methyl ester 2a]
BhCysFE; ATP, lactonization and ester hydrolysis to 4a
  LC-MS: incubated with 2a and ATP, leading to a quantitative production of 4a
CysF [1]
  GC-MS and 1H NMR product analysis: 2a was again consumed in the CysF reaction with ATP

## COC(=O)[C@@H]1OC(=O)[C@H]1C(C)C [3a, β-lactone methyl ester 3a]
CysE
  LC-MS, tandem assay with CysF: tandem reaction with CysF and CysE, including ATP, resulted in the β-lactone carboxylic acid 4a

## CCC(C)[C@H](C(=O)O)[C@@H](O)C(=O)OC (some centres unmarked) [2b]
BelH
  LC-MS and GC-MS, cascade assay with BelI or BelR: GC-MS analysis of the CysGF and BelIH cascade confirmed the formation of 3a/b

## CC(C)[C@H](C(=O)O)[C@@H](O)C(=O)O [1a, malic acid 1a]
CysG; SAM, C1-carboxylate methylated
  LC-MS and NMR product analysis: CysG exclusively produced the C1-methyl ester 2a from 1a and SAM
CysF [2]
  LC-MS, hydroxylamine trapping as hydroxamic acid 10: CysF can efficiently activate the C4-carboxyl of 1a

## Nc1ncnc2c1ncn2[C@@H]1O[C@H](COP(=O)(O)OP(=O)(O)OP(=O)(O)O)[C@@H](O)[C@H]1O [adenosine triphosphate]
BhCysFE; co-substrate 2a
  LC-MS: incubated with 2a and ATP, leading to a quantitative production of 4a

## C[S+](CC[C@H](N)C(=O)O)C[C@H]1O[C@@H](n2cnc3c(N)ncnc32)[C@H](O)[C@@H]1O (some centres unmarked) [S-adenosyl methionine]
CysG; co-substrate 1a
  LC-MS and NMR product analysis: CysG exclusively produced the C1-methyl ester 2a from 1a and SAM
